Melting point data for six molecules are collected here from patent US6579982B1, “Pyrimidine-2,4,6-trione metalloproteinase inhibitors” (Pfizer Inc., priority 1999, dated 2003).

Broadly, the melting point is the temperature of the solid-liquid transition.

For `CC1(Oc2ccc(Oc3ccc(F)cc3)cc2)C(=O)NC(=O)NC1=O`, the melting point is 187 to 189 °C.

`CCCCC1(Oc2ccc(Oc3ccc(F)cc3)cc2)C(=O)NC(=O)NC1=O` yielded a melting point of 183 °C.

The molecule `CC1(Oc2cccc(-c3ccccc3)c2)C(=O)NC(=O)NC1=O` returned a melting point of 175 °C.

With `CCCCC1(Oc2ccc(Oc3ccccc3)cc2)C(=O)NC(=O)NC1=O`, the melting point is 59 to 60 °C.

Regarding `CC1(Oc2ccc(Oc3ccccc3)cc2)C(=O)NC(=O)NC1=O`, the melting point came to 182 °C.

With `CC1(Oc2ccc(-c3ccccc3)cc2)C(=O)NC(=O)NC1=O`, the melting point was 200 to 202 °C.
